Key:
Type in all cases: in vivo
[1] = tested on: Italian ryegrass (Lolium multiflorum); experiment: Test A preemergence, visual plant response rating; details: for Ryegrass, Italian plant response rating: 125 g ai/ha, preemergence, 0 to 100 scale, 0 no effect, 100 complete control; for Ryegrass, Italian plant response rating (0 to 100 scale): 500 g ai/ha Preemergence, approx. 10 days
Method in brief: (§1)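 Compared with untreated controls, treated plants received a visual injury score on a 0–100 scale around 10 days after application. The compound, in a non-phytotoxic solvent with surfactant, was given as a preemergence soil spray or postemergence at the one- to two-leaf stage.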

[2] = tested on: barnyardgrass (Echinochloa crus-galli); experiment: Test A preemergence, visual plant response rating; details: for Barnyardgrass plant response rating: 125 g ai/ha, preemergence, 0 to 100 scale, 0 no effect, 100 complete control; for Barnyardgrass plant response rating (0 to 100 scale): 500 g ai/ha Preemergence, approx. 10 days
Method in brief: as §1

[3] = tested on: foxtail, giant (giant foxtail, Setaria faberii); experiment: Test A preemergence, visual plant response rating; details: for Foxtail, Giant plant response rating: 125 g ai/ha, preemergence, 0 to 100 scale, 0 no effect, 100 complete control; for Foxtail, Giant plant response rating (0 to 100 scale): 500 g ai/ha Preemergence, approx. 10 days
Method in brief: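 Ratings use a 0–100 visual scale (100 = complete control) against untreated controls, scored about 10 days after greenhouse treatment. Test chemicals were formulated in surfactant-containing non-phytotoxic solvent and applied either as soil spray after planting (preemergence) or onto one- to two-leaf, 2–10 cm plants (postemergence).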

kochia (Kochia scoparia) [4] = experiment: Test A preemergence, visual plant response rating; details: for Kochia plant response rating: 125 g ai/ha, preemergence, 0 to 100 scale, 0 no effect, 100 complete control; for Kochia plant response rating (0 to 100 scale): 500 g ai/ha Preemergence, approx. 10 days
Method in brief: as §1

[5] = tested on: pigweed (Amaranthus retroflexus); experiment: Test A preemergence, visual plant response rating; details: for Pigweed plant response rating: 125 g ai/ha, preemergence, 0 to 100 scale, 0 no effect, 100 complete control; for Pigweed plant response rating (0 to 100 scale): 500 g ai/ha Preemergence, approx. 10 days
Method in brief: as §1

[6] = tested on: ragweed (common ragweed, Ambrosia elatior); experiment: Test A preemergence, visual plant response rating; details: for Ragweed plant response rating: 125 g ai/ha, preemergence, 0 to 100 scale, 0 no effect, 100 complete control; for Ragweed plant response rating (0 to 100 scale): 500 g ai/ha Preemergence, approx. 10 days
Method in brief: as §1

[7] = tested on: Italian ryegrass (Lolium multiflorum); experiment: Test A postemergence, visual plant response rating; details: for Ryegrass, Italian plant response rating (0 to 100 scale): 500 g ai/ha, postemergence, 0 is no effect, 100 is complete control; for Ryegrass, Italian plant response rating: Postemergence, 125 g ai/ha, 0 to 100 scale (0 no effect, 100 complete control)
Method in brief: as §1

[8] = tested on: barnyardgrass (Echinochloa crus-galli); experiment: Test A postemergence, visual plant response rating; details: for Barnyardgrass plant response rating (0 to 100 scale): 500 g ai/ha, postemergence, 0 is no effect, 100 is complete control; for Barnyardgrass plant response rating: Postemergence, 125 g ai/ha, 0 to 100 scale (0 no effect, 100 complete control)
Method in brief: as §1

[9] = tested on: blackgrass (Alopecurus myosuroides); experiment: Test A postemergence, visual plant response rating; details: for Blackgrass plant response rating (0 to 100 scale): 500 g ai/ha, postemergence, 0 is no effect, 100 is complete control; for Blackgrass plant response rating: Postemergence, 125 g ai/ha, 0 to 100 scale (0 no effect, 100 complete control)
Method in brief: as §1

corn (Zea mays) = experiment: Test A postemergence, visual plant response rating; details: for Corn plant response rating (0 to 100 scale): 500 g ai/ha, postemergence, 0 is no effect, 100 is complete control; for Corn plant response rating: Postemergence, 125 g ai/ha, 0 to 100 scale (0 no effect, 100 complete control)
Method in brief: as §1

[10] = tested on: foxtail, giant (giant foxtail, Setaria faberii); experiment: Test A postemergence, visual plant response rating; details: for Foxtail, Giant plant response rating (0 to 100 scale): 500 g ai/ha, postemergence, 0 is no effect, 100 is complete control; for Foxtail, Giant plant response rating: Postemergence, 125 g ai/ha, 0 to 100 scale (0 no effect, 100 complete control)
Method in brief: as §1

[11] = tested on: galium (catchweed bedstraw, Galium aparine); experiment: Test A postemergence, visual plant response rating; details: for Galium plant response rating (0 to 100 scale): 500 g ai/ha, postemergence, 0 is no effect, 100 is complete control; for Galium plant response rating: Postemergence, 125 g ai/ha, 0 to 100 scale (0 no effect, 100 complete control)
Method in brief: as §1

kochia (Kochia scoparia) [12] = experiment: Test A postemergence, visual plant response rating; details: for Kochia plant response rating (0 to 100 scale): 500 g ai/ha, postemergence, 0 is no effect, 100 is complete control; for Kochia plant response rating: Postemergence, 125 g ai/ha, 0 to 100 scale (0 no effect, 100 complete control)
Method in brief: as §1

[13] = tested on: pigweed (Amaranthus retroflexus); experiment: Test A postemergence, visual plant response rating; details: for Pigweed plant response rating (0 to 100 scale): 500 g ai/ha, postemergence, 0 is no effect, 100 is complete control; for Pigweed plant response rating: Postemergence, 125 g ai/ha, 0 to 100 scale (0 no effect, 100 complete control)
Method in brief: as §1

[14] = tested on: ragweed (common ragweed, Ambrosia elatior); experiment: Test A postemergence, visual plant response rating; details: for Ragweed plant response rating (0 to 100 scale): 500 g ai/ha, postemergence, 0 is no effect, 100 is complete control; for Ragweed plant response rating: Postemergence, 125 g ai/ha, 0 to 100 scale (0 no effect, 100 complete control)
Method in brief: as §1

[15] = tested on: wheat (Triticum aestivum); experiment: Test A postemergence, visual plant response rating; details: for Wheat plant response rating (0 to 100 scale): 500 g ai/ha, postemergence, 0 is no effect, 100 is complete control; for Wheat plant response rating: Postemergence, 125 g ai/ha, 0 to 100 scale (0 no effect, 100 complete control)
Method in brief: as §1

[16] = tested on: barnyardgrass (Echinochloa crus-galli); experiment: Test B flooded paddy test, visual plant response rating; details: 250 g ai/ha, Flood, applied to paddy water, 2-leaf stage, evaluated after 13 to 15 days
Method in brief: (§2)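 At the two-leaf stage, seedlings received compound applied to paddy water flooded 3 cm above soil, a level sustained until assessment. Greenhouse incubation lasted 13 to 15 days before visual comparison with control plants.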

[17] = tested on: ducksalad (Heteranhera limosa); experiment: as above; details: 250 g ai/ha, Flood, applied to paddy water, 2-leaf stage, evaluated after 13 to 15 days
Method in brief: as §2

rice (Oryza sativa) = experiment: as above; details: 250 g ai/ha, Flood, applied to paddy water, 2-leaf stage, evaluated after 13 to 15 days
Method in brief: as §2

[18] = tested on: sedge, umbrella (small-flower umbrella sedge, Cyperus difformis); experiment: as above; details: 250 g ai/ha, Flood, applied to paddy water, 2-leaf stage, evaluated after 13 to 15 days
Method in brief: as §2

SMILES	Ryegrass, Italian plant response rating [1]	Ryegrass, Italian plant response rating (0 to 100 scale) [1]	Barnyardgrass plant response rating [2]	Barnyardgrass plant response rating (0 to 100 scale) [2]	Foxtail, Giant plant response rating [3]	Foxtail, Giant plant response rating (0 to 100 scale) [3]	Kochia plant response rating (kochia (Kochia scoparia) [4])	Kochia plant response rating (0 to 100 scale) (kochia (Kochia scoparia) [4])	Pigweed plant response rating [5]	Pigweed plant response rating (0 to 100 scale) [5]	Ragweed plant response rating (0 to 100 scale) [6]	Ryegrass, Italian plant response rating (0 to 100 scale) [7]	Ryegrass, Italian plant response rating [7]	Barnyardgrass plant response rating (0 to 100 scale) [8]	Barnyardgrass plant response rating [8]	Blackgrass plant response rating (0 to 100 scale) [9]	Blackgrass plant response rating [9]	Corn plant response rating (0 to 100 scale) (corn (Zea mays))	Corn plant response rating (corn (Zea mays))	Foxtail, Giant plant response rating (0 to 100 scale) [10]	other results
CON=C(c1c(Cl)ccc(C)c1F)c1c(O)c(C)nn(C)c1=O [Compound 101]	0	40	0	10	0	10	0	10	0	10	70	10	0	30	30	30	0	0	0	20	Ragweed plant response rating [6]: 20; Foxtail, Giant plant response rating [10]: 0; Galium plant response rating (0 to 100 scale) [11]: 80; Galium plant response rating [11]: 80; Kochia plant response rating (0 to 100 scale) (kochia (Kochia scoparia) [12]): 30; Kochia plant response rating (kochia (Kochia scoparia) [12]): 0; Pigweed plant response rating (0 to 100 scale) [13]: 40; Pigweed plant response rating [13]: 10; Ragweed plant response rating (0 to 100 scale) [14]: 60; Ragweed plant response rating [14]: 40; Wheat plant response rating (0 to 100 scale) [15]: 0; Wheat plant response rating [15]: 0; Plant response rating, Barnyardgrass (0 to 100 scale, 0 is no effect, 100 is complete control) [16]: 0; Plant response rating, Ducksalad (0 to 100 scale, 0 is no effect, 100 is complete control) [17]: 0; Plant response rating, Rice (0 to 100 scale, 0 is no effect, 100 is complete control) (rice (Oryza sativa)): 0; Plant response rating, Sedge, Umbrella (0 to 100 scale, 0 is no effect, 100 is complete control) [18]: 0
CON=C(c1cccc(C(F)(F)F)c1Cl)c1c(O)c(C)nn(C)c1=O [Compound 102]	20	50	0	40	0	30	0	0	0	10	40	30	0	30	20	30	0	0	0	30	Ragweed plant response rating [6]: 20; Foxtail, Giant plant response rating [10]: 10; Galium plant response rating (0 to 100 scale) [11]: 70; Galium plant response rating [11]: 40; Kochia plant response rating (0 to 100 scale) (kochia (Kochia scoparia) [12]): 20; Kochia plant response rating (kochia (Kochia scoparia) [12]): 20; Pigweed plant response rating (0 to 100 scale) [13]: 40; Pigweed plant response rating [13]: 20; Ragweed plant response rating (0 to 100 scale) [14]: 30; Ragweed plant response rating [14]: 10; Wheat plant response rating (0 to 100 scale) [15]: 30; Wheat plant response rating [15]: 0; Plant response rating, Barnyardgrass (0 to 100 scale, 0 is no effect, 100 is complete control) [16]: 0; Plant response rating, Ducksalad (0 to 100 scale, 0 is no effect, 100 is complete control) [17]: 0; Plant response rating, Rice (0 to 100 scale, 0 is no effect, 100 is complete control) (rice (Oryza sativa)): 0; Plant response rating, Sedge, Umbrella (0 to 100 scale, 0 is no effect, 100 is complete control) [18]: 0
CON=C(c1cccc(C(F)(F)F)c1Cl)c1c(O)c(C)nn(C)c1=O [Compound 103]	30	70	0	40	0	20	0	0	0	50	50	50	0	30	20	40	20	0	0	30	Foxtail, Giant plant response rating [10]: 0; Galium plant response rating (0 to 100 scale) [11]: 70; Galium plant response rating [11]: 40; Kochia plant response rating (0 to 100 scale) (kochia (Kochia scoparia) [12]): 20; Kochia plant response rating (kochia (Kochia scoparia) [12]): 0; Pigweed plant response rating (0 to 100 scale) [13]: 30; Pigweed plant response rating [13]: 10; Ragweed plant response rating (0 to 100 scale) [14]: 20; Ragweed plant response rating [14]: 10; Wheat plant response rating (0 to 100 scale) [15]: 0; Wheat plant response rating [15]: 0; Plant response rating, Barnyardgrass (0 to 100 scale, 0 is no effect, 100 is complete control) [16]: 0; Plant response rating, Ducksalad (0 to 100 scale, 0 is no effect, 100 is complete control) [17]: 0; Plant response rating, Rice (0 to 100 scale, 0 is no effect, 100 is complete control) (rice (Oryza sativa)): 0; Plant response rating, Sedge, Umbrella (0 to 100 scale, 0 is no effect, 100 is complete control) [18]: 0
